Patent publication US20240286179A1, “METHODS AND COMPOSITIONS FOR WASTE MANAGEMENT SYSTEMS” (priority 2023, published 2024)
Where two headings read alike, the source gives them in different places.

How the values were obtained:
[1] = tested on: chlorite dismutase (Cld) enzymes; settings: for balloon inflation: creek water
Procedure: A qualitative sampling device was created using: 300 mL plastic water bottle, 7-inch balloon and 3×⅛ in rubber band. Freshwater, wet creek bed soil (alluvial soil), and dry creek bank soil samples were collected from a stream habitat (Denton Creek in Coppell, Texas). Samples were placed in a sampling device with or without sodium chlorite (0 g, 16 g, or 32 g) to screen for the presence of Cld enzymes by observing inflation of balloon.

[2] = tested on: chlorite dismutase (Cld) enzymes
Procedure: Using water displacement method, the oxygen production and yield were calculated from 4 gm of sodium chlorite in a 300 mL wet creek bed soil sample (526 gm) placed in 500 mL Erlenmeyer flask with rubber stopper connected with rubber tubing to an inverted 1 L graduated beaker full of water and placed in a rectangular plastic tub with water.

methanogenesis [3] = tested on: methanogenesis
Procedure: A composting experiment was conducted in a 2-liter plastic soda bottle with 1 cup of organic food waste from kitchen waste with coffee grounds, 1 cup of leaves or grass clippings, 1 cup of shredded paper, and 4 cups of wet creek bed soil with 16 g of sodium chlorite (9.6 g/kg soil concentration) or 4 cups of wet creek bed soil without sodium chlorite. Gas produced in this experiment was collected using water displacement method. The %/Vol of methane was measured with a portable multi 4 gas detector with air gas sampling pump.
The LEL of CH4 is 5% of gas volume.

[4] = tested on: chlorite dismutase (Cld) enzymes; settings: 16 g NaClO2 (30 g/kg)
Procedure: A qualitative reactor for detection of gas production was designed and constructed using: 300 mL plastic water bottle, 7-inch balloon and 3×⅛ in rubber band. The surface creek soil, deep creek soil, and landfill soil cover samples were placed in qualitative reactor with 16 g NaClO2 (30 g/kg soil concentration) and without any NaClO2 to screen for the presence of Cld enzymes by observing the inflation of balloon indicating biogas production.

methanogenesis [5] = tested on: methanogenesis; remark: listed apart in the source
Procedure: An anoxic composting reactor was designed and constructed that comprised of a 2-liter plastic soda bottle attached to a 200 ml foil gas bag for quantitative gas analysis using gas chromatography. Composting experiments in anoxic composting reactor were conducted with 1 cup of organic food waste from kitchen waste with coffee grounds, 1 cup of leaves or grass clippings, 1 cup of shredded paper, and 4 cups of surface creek soil with 16 g of NaClO2 (9.6 g/kg soil concentration) or 4 cups of surface creek soil without NaClO2 or 4 cups of landfill cover soil with 16 g of NaClO2, or 4 cups or landfill cover soil without NaClO2.
Volumes of gas in the foil bags were estimated over a 3-week period. The gas samples were analyzed for fixed gases (hydrogen, oxygen, nitrogen, carbon monoxide, methane, and carbon dioxide) according to modified EPA Method 3C (single injection) using a gas chromatograph equipped with a thermal conductivity detector by ALS Environmental (Simi Valley, CA).

[6] = wet creek bed soil with 16 g NaClO2 (9.6 g/kg)

With sodium chlorite [NaClO2] the “time to rapid balloon inflation” value ([1]; alluvial creek bed soil, 16 g (0.053 g/ml) NaClO2) was no more than 6 h, the balloon inflation ([1]; 16 g (0.053 g/ml) NaClO2, after 2 days) was “no balloon inflation” and the balloon inflation ([1]; 32 g (0.11 g/ml) NaClO2, after 2 days) was “no balloon inflation”. The measurable gas production ([2]; 4 g NaClO2 in 526 g creek bed soil (7.6 g/kg), over a 65-hour period before plateauing) was 145 mL, the “measurable volume as % of theoretical oxygen yield” value ([2]; reduction of 4 grams NaClO2, calculated using the Ideal Gas Law) was “around 14%” and the “Methane % Day 12” value (methanogenesis [3]; Volume %, 16 g NaClO2 (9.6 g/kg), Day 12) was 0.75%. For the same substance, the “Methane % Day 23” value (methanogenesis [3]; Volume %, 16 g NaClO2 (9.6 g/kg), Day 23) was 0%, the “Methane % Day 34” value (methanogenesis [3]; Volume %, 16 g NaClO2 (9.6 g/kg), Day 34) was 0% and the “time at which gas production plateaued” value (methanogenesis [3]; [6]) was “about 134 hours”. The “time at which gas production was noted after set-up” value (methanogenesis [3]; [6]) was “one”, the “time within which most of the measurable gas production occurred” value (methanogenesis [3]; [6]) was no more than 46 h and the “time to rapid balloon inflation” value ([4]; deep creek soil) was no more than 6 h. For the same substance, the balloon inflation ([4]; landfill cover soil) was “did not show any balloon inflation”, the “time to rapid balloon inflation” value ([4]; surface creek soil) was no more than 6 h and the “millimoles of methane generated, creek reactors without NaClO2 compared with creek reactors with NaClO2” value (methanogenesis [5]; P-value=0.037, one-tailed paired t test) was “significantly higher”. The “volume of biogas produced” value (methanogenesis [5]; creek soil reactors with NaClO2, spread +/−81, P=0.009 vs without NaClO2) was 328 mL, the “CO2 levels in gas” value (methanogenesis [5]; landfill soil cover samples with or without NaClO2) was “lower levels of CO2” and the “CO2 levels in gas” value (methanogenesis [5]; surface creek soil, 16 g NaClO2 (9.6 g/kg)) was “increasing levels of CO2”. For the same substance, the “onset of gas production” value (methanogenesis [5]; surface creek soil, 16 g NaClO2 (9.6 g/kg), over a 60-hour period) was “immediate gas production”.
